These results are taken from patent US8058243B2, “Method for treating a brain cancer with ifenprodil” (HSC Research and Development Limited Partnership, priority 2006, dated 2011).

In this experiment the test system is murine neural precursor cells (neurosphere cultures). Kind of experiment: HTS of LOPAC library against secondary neurosphere cultures, MTT proliferation assay at 3 μM, day 7 (z score, P value). Type of experiment: cell-based, mouse.
[1] abbreviates: LOPAC library screen, 3 μM, MTT, neurosphere cultures.
Setting [2] is: LOPAC primary screen, neurosphere MTT proliferation, 3 μM, day 7.
The mark [3] stands for this setting: yes/no: significantly inhibited neurosphere proliferation in primary screen.
Where [4] appears, read: LOPAC library screen at 3 μM, secondary neurosphere cultures, MTT.
The mark [5] stands for this setting: LOPAC library screen, 3 μM, MTT, secondary neurosphere cultures, day 7.
The mark [6] stands for this setting: yes = significantly inhibited neurosphere proliferation (P<0.01) in the primary screen.
The mark [7] stands for this setting: yes/no: significantly inhibited neurosphere proliferation (P<0.01) in the primary screen.

Molecules are shown by their SMILES. Counter-ions that a name gives are not always drawn. Like-named read-outs stand apart in the source and are kept apart here.

Turning to `O=C(O)CCc1nc(-c2ccccc2)c(-c2ccccc2)o1` [Oxaprozin], under setting [1], the “Z Score” value is recorded as 0.06616. The Z score under setting [2] was determined as 0.066. Under setting [3], the Activity entry is “no”.

For the compound `O=c1[nH]c2ccccc2n1CCCN1CCN(C(c2ccccc2)c2ccccc2)CC1` [Oxatomide], under setting [1], the “Z Score” value came out at 0.5957. Under setting [2], this compound gave a Z score of 0.596. Besides, the Activity result under setting [3] was “no”.

Take `NC(=O)CN1CC(O)CC1=O` (stereo not drawn) [Oxiracetam]: the “Z Score” value under setting [4] is reported as −0.6131. Under setting [2], this compound yielded a Z score of −0.613. For the same compound, the Activity result under setting [3] was “no”.

For `CCn1cc(C(=O)O)c(=O)c2cc3c(cc21)OCO3` [Oxolinic acid], the “Z Score” value under setting [1] worked out at 0.9179. Moreover, the Z score under setting [2] is 0.918. The Activity result under setting [3] is “no”.

In the case of `C[N+](C)(C)CC#CCN1CCCC1=O` [Oxotremorine methiodide], the “Z Score” value is −0.7002. Besides, under setting [2], the Z score is on record as −0.700. The Activity result under setting [3] is given as “no”.

With `CCN(CC)CC#CCOC(=O)C(O)(c1ccccc1)C1CCCCC1` (stereo not drawn) [Oxybutynin Chloride], the Activity entry is “no”. Also, the “Z Score” value under setting [1] is given as 0.708. This compound registered a Z score under setting [2] of 0.708.

Regarding `Cc1cc(C(C)(C)C)c(O)c(C)c1CC1=NCCN1` [Oxymetazoline hydrochloride], the “Z Score” value under setting [5] is listed as −2.72. In addition, the Z score under setting [2] is −2.720. The Activity entry under setting [6] is “yes”.

`COc1cccc(-c2cc(=O)c3ccccc3o2)c1N` [PD 98,059]: the Activity result is recorded as “no” and the “Z Score” value was 0.9027. This compound gave a Z score under setting [2] of 0.903.

With `Cc1cccc(C(=O)NCN2CCN(c3ccccc3C#N)CC2)c1.O=C(O)/C=C\C(=O)O` [PD 168,077 maleate], the “Z Score” value is listed as −1.516. Under setting [2], this compound gave a Z score of −1.516. The Activity result under setting [3] was “no”.

`N=C1Sc2ccccc2C2=NCCCN12` [PD 404,182]: the “Z Score” value is recorded as 0.09055. In addition, the Z score under setting [2] worked out at 0.091. The Activity entry under setting [3] was “no”.

In the case of `CCC(C)N(C)C(=O)c1cc2ccccc2c(-c2ccccc2Cl)n1` (stereo not drawn) [PK 11195], for the setting “168 h, 3 µM”, the “Z Score” value is recorded as −0.4676 and the Z score is −0.468. Moreover, the Activity result (yes/no: significantly inhibited neurosphere proliferation (P<0.01) in primary screen) is reported as “no”.

On to `Cc1nc(N=Nc2ccc(S(=O)(=O)O)cc2S(=O)(=O)O)c(COP(=O)(O)O)c(C=O)c1O` [PPADS], for which the “Z Score” value worked out at 1.106. Under setting [2], this compound returned a Z score of 1.106. Also, the Activity entry under setting [3] is reported as “no”.

For `Cc1nc(N=Nc2cc(S(=O)(=O)[O-])c3cc([N+](=O)[O-])cc(S(=O)(=O)[O-])c3c2)c(COP(=O)([O-])[O-])c(C=O)c1O.[Na+].[Na+].[Na+].[Na+]` [PPNDS tetrasodium], the “Z Score” value is reported as −2.067. Moreover, under setting [2], the Z score is reported as −2.067. For the same compound, the Activity result under setting [3] was “no”.

On to `O=C(OCCN1CCOCC1)C1(c2ccccc2)CCCCC1` [PRE-084], for which the “Z Score” value worked out at 1.311. Also, the Z score under setting [2] came out at 1.311. In addition, the Activity result under setting [7] is on record as “no”.

As to `CCCCCCCCCCCCCCCC(=O)NCCO` [Palmitoylethanolamide], the Activity result is “no”. In addition, the “Z Score” value under setting [4] was −0.9134. This compound came in with a Z score under setting [2] of −0.913.

For `CC(=O)O[C@H]1C[C@@H]2CC[C@@H]3[C@H](CC[C@@]4(C)[C@H]3C[C@H]([N+]3(C)CCCCC3)[C@@H]4OC(C)=O)[C@@]2(C)C[C@@H]1[N+]1(C)CCCCC1` [Pancuronium bromide], the “Z Score” value under setting [1] was found to be 0.4077. Besides, the Z score under setting [2] turned out to be 0.408. Moreover, the Activity entry under setting [3] is recorded as “no”.

Turning to `COc1ccc(Cc2nccc3cc(OC)c(OC)cc23)cc1OC` [Papaverine hydrochloride], the “Z Score” value under setting [4] is −0.2992. Further, the Z score under setting [2] is listed as −0.299. Further, the Activity entry under setting [3] is on record as “no”.

In the case of `NC[C@@H]1O[C@H](O[C@H]2[C@@H](O)[C@H](O[C@@H]3[C@@H](O)[C@H](N)C[C@H](N)[C@H]3O[C@H]3O[C@H](CO)[C@@H](O)[C@H](O)[C@H]3N)O[C@@H]2CO)[C@H](N)[C@@H](O)[C@@H]1O.O=S(=O)(O)O` [Paramomycin sulfate], the Z score under setting [2] is 0.821. In addition, the Activity result under setting [3] was “no”.

On to `C#CCN(C)Cc1ccccc1` [Pargyline hydrochloride], for which the “Z Score” value under setting [4] was −0.2794. Also, under setting [2], the Z score is given as −0.279. Under setting [3], the Activity entry is recorded as “no”.

For `NC[C@@H]1O[C@H](O[C@H]2[C@@H](O)[C@H](O[C@@H]3[C@@H](O)[C@H](N)C[C@H](N)[C@H]3O[C@H]3O[C@H](CO)[C@@H](O)[C@H](O)[C@H]3N)O[C@@H]2CO)[C@H](N)[C@@H](O)[C@@H]1O` [Paromomycin sulfate], the “Z Score” value under setting [1] was 0.821.

On to `CN1C(C)(C)CCCC1(C)C` [Pempidine tartrate], for which the “Z Score” value under setting [5] was −1.719. The compound also gave a Z score under setting [2] of −1.719. In addition, the Activity result under setting [6] is “no”.

As to `N=C(N)c1ccc(OCCCCCOc2ccc(C(=N)N)cc2)cc1` [Pentamidine (32), Pentamidine, reference compound], the Activity entry is recorded as “yes”. Under setting [5], the “Z Score” value was −11.27. The compound further showed a Z score under setting [2] of −11.274.

As to `C[N+]1(CCCCC[N+]2(C)CCCC2)CCCC1.O=C([O-])C(O)C(O)C(=O)O.O=C([O-])C(O)C(O)C(=O)O` [Pentolinium di[L(+)-tartrate]], under setting [1], the “Z Score” value amounted to 0.1662. In addition, the Z score under setting [2] is on record as 0.166. Besides, the Activity entry under setting [3] is “no”.

Turning to `CC(=O)CCCCn1c(=O)c2c(ncn2C)n(C)c1=O` [Pentoxifylline], under setting [5], the “Z Score” value is listed as −1.637. For the same compound, the Z score under setting [2] is listed as −1.637. For the same compound, under setting [3], the Activity result is reported as “no”.

For the compound `C1CCc2nnnn2CC1` [Pentylenetetrazole], the “Z Score” value under setting [4] was −0.9274. For the same compound, the Z score under setting [2] was −0.927. Also, under setting [6], the Activity result is “no”.

Turning to `CCCN1C[C@H](CSC)C[C@@H]2c3cccc4[nH]cc(c34)C[C@H]21` [Pergolide methanesulfonate], the “Z Score” value under setting [5] is given as −2.657. Under setting [2], the Z score is given as −2.657. The Activity result under setting [7] is reported as “yes”.

Regarding `OCCN1CCN(CCCN2c3ccccc3Sc3ccc(Cl)cc32)CC1` [Perphenazine (26), Perphenazine, reference compound], the “Z Score” value under setting [5] was −11.06. This compound also came in with a Z score under setting [2] of −11.065. Moreover, the Activity result under setting [7] is given as “yes”.

Turning to `NCC(CP(=O)(O)O)c1ccc(Cl)cc1` (stereo not drawn) [Phaclofen], the “Z Score” value was 0.9701. The compound further showed a Z score under setting [2] of 0.970. Further, the Activity result under setting [3] was “no”.

With `NC(=Nc1ccccc1)NC(=O)c1nc(Cl)c(N)nc1N` [Phenamil methanesulfonate], under setting [1], the “Z Score” value is on record as 1.485. The compound also gave a Z score under setting [2] of 1.485. Besides, the Activity entry under setting [7] was “no”.

For the compound `NNCCc1ccccc1` [Phenelzine sulfate], the “Z Score” value under setting [5] is −1.536. This compound displayed a Z score under setting [2] of −1.536. Also, the Activity result under setting [3] is reported as “no”.

As for `CN(C)CCC(c1ccccc1)c1ccccn1` (stereo not drawn) [Pheniramine maleate], the “Z Score” value under setting [4] is given as −0.2062. Moreover, the Z score under setting [2] is −0.206. In addition, the Activity result under setting [7] was “no”.
